Calls of active or inactive are those of the source. The calls are words filed in the database; no cut-off is given here.
Legend:
[1] = system: LNCaP; test: Induction of apoptosis in human LNCaP cells assessed as necrotic cells level at 10 micromol/L incubated for 24 hrs by Annexin V/PI staining staining based flow cytometry (reference value: 0.694%); format: functional; details: dose 10 µmol/L, at 10 µM
[2] = system: LNCaP; test: Induction of apoptosis in human LNCaP cells assessed as viable cells level at 1 micromol/L incubated for 24 hrs by Annexin V/PI staining staining based flow cytometry (reference value: 96.3%); format: functional; details: dose 1 µmol/L, at 1 µM
[3] = system: LNCaP; test: Antiproliferative activity against androgen-positive human LNCaP cells assessed as cell growth inhibition measured after 72 hrs by SRB assay; format: functional, cell-based
[4] = system: LNCaP; test: Induction of cell cycle arrest in human LNCaP cells assessed as accumulation at S phase at 1 micromol/L after 24 hrs by RNase A/PI-staining based flow cytometric analysis (reference value: 20.69%); format: functional; details: dose 1 µmol/L, at 1 µM
[5] = system: LNCaP; test: Induction of apoptosis in human LNCaP cells assessed as late apoptotic cells level at 10 micromol/L incubated for 24 hrs by Annexin V/PI staining staining based flow cytometry (reference value: 0.940%); format: functional; details: dose 10 µmol/L, at 10 µM
[6] = system: LNCaP; test: Induction of cell cycle arrest in human LNCaP cells assessed as accumulation at G1 phase at 2 micromol/L after 24 hrs by RNase A/PI-staining based flow cytometric analysis (reference value: 47.99%); format: functional; details: dose 2 µmol/L, at 2 µM
[7] = system: LNCaP; test: Induction of apoptosis in human LNCaP cells assessed as early apoptotic cells level at 10 micromol/L incubated for 24 hrs by Annexin V/PI staining staining based flow cytometry (reference value: 2.09%); format: functional; details: dose 10 µmol/L, at 10 µM
[8] = system: SGC-7901; test: Antiproliferative activity against androgen-positive human SGC-7901 cells assessed as cell growth inhibition measured after 72 hrs by SRB assay; format: functional, cell-based; details: SGC-7901, 72 h
[9] = system: LNCaP; test: Induction of cell cycle arrest in human LNCaP cells assessed as accumulation at S phase at 2 micromol/L after 24 hrs by RNase A/PI-staining based flow cytometric analysis (reference value: 20.69%); format: functional; details: dose 2 µmol/L, at 2 µM
[10] = molecular target: T1, Androgen receptor (Homo sapiens) (UniProt P10275); test: Selective androgen receptor degradation activity at androgen receptor in human LNCaP cells assessed as down regulation of protein level at 1 uM after 24 hrs by Western blot analysis; format: cell-based
T1 sequence (whole entry): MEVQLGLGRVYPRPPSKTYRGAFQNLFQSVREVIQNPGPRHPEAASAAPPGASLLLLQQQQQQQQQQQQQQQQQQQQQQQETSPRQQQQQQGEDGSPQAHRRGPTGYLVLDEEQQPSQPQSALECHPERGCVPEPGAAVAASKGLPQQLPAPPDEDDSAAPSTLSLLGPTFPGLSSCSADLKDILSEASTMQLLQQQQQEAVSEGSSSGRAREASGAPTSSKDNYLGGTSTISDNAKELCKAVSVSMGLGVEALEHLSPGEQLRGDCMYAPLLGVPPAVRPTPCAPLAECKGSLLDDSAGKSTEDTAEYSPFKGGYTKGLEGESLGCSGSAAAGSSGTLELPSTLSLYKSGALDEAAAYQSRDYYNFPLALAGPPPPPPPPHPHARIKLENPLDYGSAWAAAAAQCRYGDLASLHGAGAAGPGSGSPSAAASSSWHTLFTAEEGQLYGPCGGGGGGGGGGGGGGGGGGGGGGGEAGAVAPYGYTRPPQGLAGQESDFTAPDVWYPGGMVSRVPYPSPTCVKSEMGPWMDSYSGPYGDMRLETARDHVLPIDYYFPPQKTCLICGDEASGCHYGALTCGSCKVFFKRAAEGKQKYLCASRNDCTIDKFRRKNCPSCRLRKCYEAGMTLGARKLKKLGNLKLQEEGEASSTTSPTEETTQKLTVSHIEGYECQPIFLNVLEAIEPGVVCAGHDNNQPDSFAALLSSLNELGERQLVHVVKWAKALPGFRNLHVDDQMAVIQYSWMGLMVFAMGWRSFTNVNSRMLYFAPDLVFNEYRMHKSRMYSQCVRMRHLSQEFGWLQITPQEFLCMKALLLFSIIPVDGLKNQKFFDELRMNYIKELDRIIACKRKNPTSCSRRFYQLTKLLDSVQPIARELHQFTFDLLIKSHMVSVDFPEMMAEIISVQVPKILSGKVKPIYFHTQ

[11] = Cytotoxicity against androgen-negative human WPMY-1 cells assessed as cell growth inhibition measured after 72 hrs by SRB assay; format: cell-based; details: WPMY-1, 72 h
[12] = molecular target: Transmembrane protease serine 2 (Homo sapiens) (UniProt O15393); test: Induction of downregulation of TMPRSS2 (unknown orgin) human LNCaP cells at 2 uM after 24 hrs by Western blot analysis
[13] = molecular target: Transmembrane protease serine 2 (Homo sapiens) (UniProt O15393); test: Induction of downregulation of TMPRSS2 (unknown orgin) human LNCaP cells at 10 uM after 24 hrs by Western blot analysis
[14] = molecular target: T1, Androgen receptor (Homo sapiens); test: Selective androgen receptor degradation activity at androgen receptor in human LNCaP cells assessed as down regulation of protein level at 10 uM after 24 hrs by Western blot analysis; format: cell-based
[15] = system: MCF7; test: Antiproliferative activity against androgen-positive human MCF7 cells assessed as cell growth inhibition measured after 72 hrs by SRB assay; format: functional, cell-based; details: MCF7, 72 h
[16] = system: LNCaP; test: Induction of apoptosis in human LNCaP cells assessed as early apoptotic cells level at 2 micromol/L incubated for 24 hrs by Annexin V/PI staining staining based flow cytometry (reference value: 2.09%); format: functional; details: dose 2 µmol/L, at 2 µM
[17] = molecular target: T1, Androgen receptor (Homo sapiens); test: Selective androgen receptor degradation activity at androgen receptor in human LNCaP cells assessed as down regulation of protein level at 10 uM after 72 hrs by Western blot analysis; format: cell-based
[18] = molecular target: T1, Androgen receptor (Homo sapiens); test: Binding affinity to androgen receptor LBD (unknown origin) at 10 uM incubated for 4 hrs under dark by fluorescence polarization based binding assay relative to R1881
[19] = system: LNCaP; test: Induction of cell cycle arrest in human LNCaP cells assessed as accumulation at G2 phase at 1 micromol/L after 24 hrs by RNase A/PI-staining based flow cytometric analysis (reference value: 20.87%); format: functional; details: dose 1 µmol/L, at 1 µM
[20] = system: LNCaP; test: Induction of apoptosis in human LNCaP cells assessed as necrotic cells level at 2 micromol/L incubated for 24 hrs by Annexin V/PI staining staining based flow cytometry (reference value: 0.694%); format: functional; details: dose 2 µmol/L, at 2 µM
[21] = system: LNCaP; test: Induction of apoptosis in human LNCaP cells assessed as late cells level at 2 micromol/L incubated for 24 hrs by Annexin V/PI staining staining based flow cytometry (reference value: 0.940%); format: functional; details: dose 2 µmol/L, at 2 µM
[22] = molecular target: T1, Androgen receptor (Homo sapiens); test: Selective androgen receptor degradation activity at androgen receptor in human LNCaP cells assessed as down regulation of protein level at 10 uM after 24 hrs in presence of MG132 by Western blot analysis; format: cell-based
[23] = molecular target: Prostate-specific antigen (Homo sapiens) (UniProt P07288); test: Induction of downregulation of PSA (unknown orgin) human LNCaP cells at 2 uM after 24 hrs by Western blot analysis
[24] = system: LNCaP; test: Induction of cell cycle arrest in human LNCaP cells assessed as accumulation at G2 phase at 2 micromol/L after 24 hrs by RNase A/PI-staining based flow cytometric analysis (reference value: 20.87%); format: functional; details: dose 2 µmol/L, at 2 µM
[25] = system: LNCaP; test: Induction of apoptosis in human LNCaP cells assessed as necrotic cells level at 1 micromol/L incubated for 24 hrs by Annexin V/PI staining staining based flow cytometry (reference value: 0.694%); format: functional; details: dose 1 µmol/L, at 1 µM

Chain of Transmembrane protease serine 2 (Homo sapiens) (O15393 1-255 limits assumed): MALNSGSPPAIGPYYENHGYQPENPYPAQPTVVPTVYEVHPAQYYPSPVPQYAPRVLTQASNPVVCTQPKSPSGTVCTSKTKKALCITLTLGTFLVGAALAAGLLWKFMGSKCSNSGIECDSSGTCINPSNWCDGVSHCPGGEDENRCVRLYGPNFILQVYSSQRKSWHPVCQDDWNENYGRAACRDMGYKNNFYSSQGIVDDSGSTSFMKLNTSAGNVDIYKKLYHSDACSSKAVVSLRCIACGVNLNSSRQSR
Chain of Transmembrane protease serine 2 (Homo sapiens) (O15393 256-492 limits assumed): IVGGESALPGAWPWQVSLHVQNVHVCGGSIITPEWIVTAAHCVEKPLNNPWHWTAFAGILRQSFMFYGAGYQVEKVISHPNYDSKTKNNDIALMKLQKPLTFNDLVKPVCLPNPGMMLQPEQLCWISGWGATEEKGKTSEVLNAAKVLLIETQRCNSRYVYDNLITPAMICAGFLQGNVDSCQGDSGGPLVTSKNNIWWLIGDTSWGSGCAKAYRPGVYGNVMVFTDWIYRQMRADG
Chain of Prostate-specific antigen (Homo sapiens) (P07288 whole entry, looked up): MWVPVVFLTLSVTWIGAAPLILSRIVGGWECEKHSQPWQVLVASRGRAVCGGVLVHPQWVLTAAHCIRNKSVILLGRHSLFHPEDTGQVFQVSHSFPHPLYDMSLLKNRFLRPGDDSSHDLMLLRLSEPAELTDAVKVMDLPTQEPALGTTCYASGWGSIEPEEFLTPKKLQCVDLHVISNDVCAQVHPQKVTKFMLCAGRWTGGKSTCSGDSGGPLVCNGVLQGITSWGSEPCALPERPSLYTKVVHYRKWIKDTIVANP

CC1(C)C(=O)N(c2ccc(C#N)c(C(F)(F)F)c2)C(=S)N1CCCCCn1cc(COCCOCCOC(=O)CC23CC4CC(CC(C4)C2)C3)nn1
Activity [1]: 0.024% | Activity [2]: 96.1% | IC50 [3]: 1.75 µM | Activity [4]: 19.84% | Activity [5]: 6.6% | Activity [6]: 67.54% | Activity [7]: 14.4% | IC50 [8]: 6.93 µM | Activity [9]: 12.65% | Activity [10]: Active | IC50 [11]: > 80 µM | Activity [12]: Active | Activity [13]: Active | Activity [14]: Active | IC50 [15]: 50.5 µM | Activity [16]: 1.56% | Activity [17]: Active | Activity [18]: 85.3% | Activity [19]: 20.07% | Activity [20]: 0.774% | Activity [21]: 1.59% | Activity [22]: Active | Activity [23]: Active | Activity [24]: 8.9% | Activity [25]: 0.774%

— ChEMBL document CHEMBL4706528, “The design, synthesis and anti-tumor mechanism study of new androgen receptor degrader” (Eur J Med Chem, 2020)
